Experimental data: patent US20020006420A1, “USE OF A 2-AMINO-ALKANE POLYOL AS AGENT FOR TREATING SKIN AGEING SIGNS” (priority 1997, published 2002)

How the values were obtained:
Format in all cases: cell-based
HaCat cells [1] = assay: Effect on the cell cycle (BrdU incorporation, S phase); conditions: 50 nM
Method: (§1) HaCat cells are cultured as above.
(§2) They are then inoculated at the density of 20,000 cells per well into the 24 wells of multiwell-type plates (Costar, France).
24 hours after inoculation, the cells are brought into contact with various compounds tested in a KBM medium (company Clonetics) containing insulin at 5 μg/ml and hydrocortisone at 0.5 μg/ml, and 5-bromo-2′-deoxyuridine (BrdU) at 1 μM.
[…] This is carried out with the aid of a “BrdU fast” kit sold by the company Boehringer and according to the supplier's instructions.
Compounds A and B of the preceding example were tested at the concentration of 50 nM.
The results, expressed as a percentage, represent the increase in the number of cells which entered the S phase relative to the control, that is to say relative to a culture carried out under the same conditions in the absence of alkanediol compounds.

HaCat cells [2] = assay: Effect on cell viability (mitochondrial respiration, XTT kit); conditions: 50 nM
Method: as §1, §2
(§3) 24 hours after inoculation, the cells are brought into contact with various compounds tested in a KBM medium (company Clonetics) containing insulin at 5 μg/ml and hydrocortisone at 0.5 μg/ml.
(§4) The cell viability is evaluated 48 hours later by the measurement of mitochondrial respiration. This is carried out with the aid of an XTT kit sold by the company Boehringer and according to the supplier's instructions.
Compounds A and B of the preceding example were tested at the concentration of 50 nM, as well as a derivative based on sphingenine: N-palmitoylsphingenine from Sigma (C16H).
The results, expressed as a percentage, represent the increase in the number of cells relative to the control, that is to say relative to a culture carried out under the same conditions in the absence of alkanediol compounds.

HaCat cells [3] = assay: Proliferative effect on keratinocytes in culture (cell counting, Coulter Counter); conditions: for increase in the number of cells relative to the control: counting 5 days after addition
Method: HaCat cells (Boukamp et al., J. Cell Biol. Vol. 106, March 1988, 761-771) are cultured in DMEM medium (company Gibco) containing amino acids (mixture of nonessential amino acids) at the concentration of 0.1 mM, penicillin and streptomycin at the respective concentrations of 50 International Units per milliliter and 50 μg/ml, glutamine at the concentration of 2 mM, sodium pyruvate at the concentration of 1 mM and foetal calf serum at 10%. These cells were inoculated at the density of 10,000 cells per well into the 24 wells of multiwell-type plates (Costar, France).
24 hours after inoculation, the cells are brought into contact with various compounds tested in a KBM medium (company Clonetics) containing 0.15 mM of calcium ion, insulin at 5 μg/ml, hydrocortisone at 0.5 μg/ml and lipid-free bovine serum albumin at 1 μg/ml.
Cell counting is carried out 5 days after the addition of the various ceramides using a cell counter of the Coulter Counter type.
The various compounds are tested at 0.5 nM, 5 nM, 50 nM and 500 nM.
The results, expressed as a percentage, represent the increase in the number of cells relative to the control, that is to say relative to a culture carried out under the same conditions in the absence of sphinganine.

HaCat cells [4] = assay: Cell viability in the presence of N-acetylsphingenine (XTT kit); conditions: 10 μM
Method: HaCat cells are cultured as in Example 2.
as §3
The cells are cultured in the presence of the 2-amino-1,3-octadecanediol to be tested until the cell viability is evaluated.
The N-acteylsphingenine at the concentration of 10 μM is added to the culture medium over 2 hours at the beginning of the experiment.
as §4
The experiment was carried out with the following compounds at the concentration of 50 nM:
in comparison with the culture medium without alkanediol and without N-acetylsphingenine (A), and with a medium containing only N-acetylsphingenine (B).
The results, expressed as a percentage, represent the number of cells relative to the control (A), that is to say relative to a culture carried out under the same conditions in the absence of alkanediol compounds and of N-acetysphingenine.

Compound | effect on number of keratinocytes which entered the S phase (in words) (HaCat cells [1]) | increase in the number of cells which entered the S phase relative to the control (HaCat cells [1]; 72 hours) [%] | increase in the number of cells which entered the S phase relative to the control (HaCat cells [1]; 96 hours) [%] | effect on viability of keratinocytes in culture (in words) (HaCat cells [2]) | cell viability: increase in the number of cells relative to the control (HaCat cells [2]; XTT 48 hours later) | proliferative activity on keratinocytes in culture (in words) (HaCat cells [3]) | increase in the number of cells relative to the control (HaCat cells [3]; 0.5 nM) [%] | increase in the number of cells relative to the control (HaCat cells [3]; 5 nM) [%] | increase in the number of cells relative to the control (HaCat cells [3]; 50 nM) [%] | increase in the number of cells relative to the control (HaCat cells [3]; 500 nM) [%] | effect of N-acetylsphingenine on cell viability (in words) (HaCat cells [4])
CCCCCCCCCCCCCCCC(O)C(N)CO (single isomer, unassigned) [A, 2-amino-1,3-octadecanediol] | increase the number of keratinocytes which entered the S phase | 36 | 41 | increase the viability | +17% | proliferative activity | 7 | 15 | 17 | 30 | –
CCCCCCCCCCCCC/C=C/[C@@H](O)[C@H](CO)NC(=O)CCCCCCCCCCCCCCC [Compound C16H, N-palmitoylsphingenine, reference compound] | – | – | – | cytotoxic effect | – | – | – | – | – | – | –
N-acetylsphingenine [B] | – | – | – | – | – | – | – | – | – | – | decrease in cell viability
